Laboratory results as given in PMC9516332 (Frontiers in Oncology, 2022).
Read-outs that look alike come from different tables or passages of the source.

Columns and labels:
Test in all cases: Kinase panel profiling at 1 µmol/L (MSA or IMAP), percentage inhibition
Format in all cases: biochemical
[1] = molecular target: panel of 255 wild-type kinases (Homo sapiens, UniProt P27361); conditions: kinase Erk1; 1 µmol/L single concentration; read-out: %-inhibition at 1 µmol/L, Erk1
[2] = molecular target: panel of 255 wild-type kinases (Homo sapiens, UniProt Q16654); conditions: kinase PDHK4; 1 µmol/L single concentration; read-out: %-inhibition at 1 µmol/L, PDHK4
[3] = molecular target: panel of 255 wild-type kinases (Homo sapiens, UniProt Q9H2G2); conditions: kinase SLK; 1 µmol/L single concentration; read-out: %-inhibition at 1 µmol/L, SLK
[4] = molecular target: T1, panel of 255 wild-type kinases (Homo sapiens, UniProt Q9BXA7); conditions: kinase TSSK1; 1 µmol/L single concentration; read-out: %-inhibition at 1 µmol/L, TSSK1
T1 sequence (Q9BXA7 1-367): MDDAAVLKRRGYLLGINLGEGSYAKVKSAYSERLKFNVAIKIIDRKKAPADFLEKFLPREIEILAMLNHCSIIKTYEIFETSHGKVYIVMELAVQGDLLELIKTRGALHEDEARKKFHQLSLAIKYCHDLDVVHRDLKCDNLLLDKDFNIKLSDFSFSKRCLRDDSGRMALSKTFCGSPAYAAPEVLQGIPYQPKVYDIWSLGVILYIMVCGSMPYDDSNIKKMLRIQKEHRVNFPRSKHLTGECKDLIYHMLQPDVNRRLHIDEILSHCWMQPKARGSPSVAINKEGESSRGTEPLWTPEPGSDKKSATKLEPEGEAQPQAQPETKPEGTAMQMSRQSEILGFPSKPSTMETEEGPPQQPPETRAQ

[5] = molecular target: T2, panel of 255 wild-type kinases (Homo sapiens, UniProt O15264); conditions: p38δ; 1 µmol/L single concentration; read-out: %-inhibition, p38δ
T2 sequence (O15264 1-365): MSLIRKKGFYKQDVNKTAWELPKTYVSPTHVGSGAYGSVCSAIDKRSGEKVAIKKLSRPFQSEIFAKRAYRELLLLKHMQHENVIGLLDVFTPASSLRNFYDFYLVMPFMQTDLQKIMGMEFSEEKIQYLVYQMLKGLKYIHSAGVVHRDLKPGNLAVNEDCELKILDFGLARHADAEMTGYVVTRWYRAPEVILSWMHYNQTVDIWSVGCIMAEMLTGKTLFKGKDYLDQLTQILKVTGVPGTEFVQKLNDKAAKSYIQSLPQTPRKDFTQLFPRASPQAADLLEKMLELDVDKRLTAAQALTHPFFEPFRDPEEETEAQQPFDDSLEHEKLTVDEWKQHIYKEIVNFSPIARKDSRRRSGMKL

[6] = molecular target: panel of 255 wild-type kinases (Homo sapiens, UniProt Q9NYA1); conditions: kinase SPHK1; 1 µmol/L single concentration; read-out: %-inhibition at 1 µmol/L, SPHK1
[7] = molecular target: T3, panel of 255 wild-type kinases (Homo sapiens, UniProt Q8IWQ3); conditions: BRSK2 kinase assay; 1 µmol/L single concentration; read-out: %-inhibition BRSK2
T3 sequence (Q8IWQ3 1-736): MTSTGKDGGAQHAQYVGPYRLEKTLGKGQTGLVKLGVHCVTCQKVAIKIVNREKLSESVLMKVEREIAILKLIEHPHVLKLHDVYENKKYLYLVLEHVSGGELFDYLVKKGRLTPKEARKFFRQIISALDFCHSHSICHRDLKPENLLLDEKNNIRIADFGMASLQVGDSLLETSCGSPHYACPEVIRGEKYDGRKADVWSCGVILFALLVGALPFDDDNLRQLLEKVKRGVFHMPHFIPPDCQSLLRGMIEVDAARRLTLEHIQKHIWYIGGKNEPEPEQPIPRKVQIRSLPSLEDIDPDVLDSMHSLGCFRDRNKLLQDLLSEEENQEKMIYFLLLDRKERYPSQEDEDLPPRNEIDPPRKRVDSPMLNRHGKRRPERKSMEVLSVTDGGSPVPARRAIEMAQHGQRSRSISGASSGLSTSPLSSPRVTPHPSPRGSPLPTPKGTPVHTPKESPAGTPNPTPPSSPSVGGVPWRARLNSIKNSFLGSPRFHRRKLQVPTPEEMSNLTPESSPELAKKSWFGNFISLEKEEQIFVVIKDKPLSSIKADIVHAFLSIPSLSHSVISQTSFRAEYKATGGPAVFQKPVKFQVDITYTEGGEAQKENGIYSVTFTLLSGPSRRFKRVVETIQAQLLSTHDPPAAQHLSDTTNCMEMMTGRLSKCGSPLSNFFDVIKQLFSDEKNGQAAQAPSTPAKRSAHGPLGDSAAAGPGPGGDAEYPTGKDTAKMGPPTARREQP

[8] = molecular target: panel of 255 wild-type kinases (Homo sapiens, UniProt Q13554); conditions: CaMK2β kinase assay; 1 µmol/L single concentration; read-out: %-inhibition CaMK2β
[9] = molecular target: panel of 255 wild-type kinases (Homo sapiens, UniProt Q96GD4); conditions: read-out: %-inhibition AurB
[10] = molecular target: T4, panel of 255 wild-type kinases (Homo sapiens, UniProt Q92630); conditions: kinase DYRK2; 1 µmol/L single concentration; read-out: %-inhibition at 1 µmol/L, DYRK2
T4 sequence (Q92630 1-601): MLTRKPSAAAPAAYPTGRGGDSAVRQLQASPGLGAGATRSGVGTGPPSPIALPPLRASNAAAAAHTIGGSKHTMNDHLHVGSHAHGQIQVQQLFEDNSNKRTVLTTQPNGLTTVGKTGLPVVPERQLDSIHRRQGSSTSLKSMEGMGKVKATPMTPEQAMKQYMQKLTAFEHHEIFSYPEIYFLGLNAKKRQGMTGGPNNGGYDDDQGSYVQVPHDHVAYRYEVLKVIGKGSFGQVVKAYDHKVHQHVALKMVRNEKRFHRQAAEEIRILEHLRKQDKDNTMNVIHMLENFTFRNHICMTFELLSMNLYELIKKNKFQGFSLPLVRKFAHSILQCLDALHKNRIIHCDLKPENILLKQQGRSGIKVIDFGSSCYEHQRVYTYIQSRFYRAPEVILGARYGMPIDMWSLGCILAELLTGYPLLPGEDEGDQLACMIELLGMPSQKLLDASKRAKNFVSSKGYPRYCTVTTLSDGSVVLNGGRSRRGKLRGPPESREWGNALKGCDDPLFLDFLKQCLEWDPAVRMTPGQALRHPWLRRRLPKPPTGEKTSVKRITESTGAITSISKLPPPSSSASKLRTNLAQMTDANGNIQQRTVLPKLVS

[11] = AurB kinase assay, 1 µmol/L single concentration

Q: With `C[C@H]1Oc2cc(cnc2N)-c2c(nn(C)c2C#N)CN(C)C(=O)c2ccc(F)cc21` [lorlatinib] as the molecule, how does the inhibition at 1 µM [1] read?
A: The inhibition at 1 µM was 3%.

Q: And the inhibition at 1 µM [2]?
A: The inhibition at 1 µM was -0.664%.

Q: What about the inhibition at 1 µM [3] of the same molecule?
A: The inhibition at 1 µM was 90%.

Q: What about the inhibition at 1 µM [4] of the same molecule?
A: The inhibition at 1 µM was 84%.

Q: And the inhibition at 1 µM [5]?
A: The inhibition at 1 µM was -3.52%.

Q: What about the inhibition at 1 µM [6] of the same molecule?
A: Its inhibition at 1 µM is -7%.

Q: What about the inhibition at 1 µM [7] of the same molecule?
A: The inhibition at 1 µM was 36%.

Q: And the inhibition at 1 µM [8]?
A: Its inhibition at 1 µM is -3.21%.

Q: And the inhibition at 1 µM [9, 11]?
A: The inhibition at 1 µM was 5%.

Q: What about the inhibition at 1 µM [10] of the same molecule?
A: Its inhibition at 1 µM is 4.35%.

Q: How did the inhibition at 1 µM [1] turn out when `COC(=O)N[C@@H](C)CNc1nccc(-c2cn(C(C)C)nc2-c2cc(Cl)cc(NS(C)(=O)=O)c2F)n1` [encorafenib] was run?
A: Its inhibition at 1 µM is -0.942%.

Q: What about the inhibition at 1 µM [2] of the same molecule?
A: Its inhibition at 1 µM is -2.11%.

Q: What about the inhibition at 1 µM [3] of the same molecule?
A: The inhibition at 1 µM was 6%.

Q: What about the inhibition at 1 µM [4] of the same molecule?
A: The inhibition at 1 µM was 3%.

Q: What about the inhibition at 1 µM [5] of the same molecule?
A: Its inhibition at 1 µM is 5%.

Q: What about the inhibition at 1 µM [6] of the same molecule?
A: Its inhibition at 1 µM is -5.65%.

Q: What about the inhibition at 1 µM [7] of the same molecule?
A: The inhibition at 1 µM was -8%.

Q: And the inhibition at 1 µM [8]?
A: Its inhibition at 1 µM is 4.23%.

Q: And the inhibition at 1 µM [9, 11]?
A: Its inhibition at 1 µM is -0.69%.

Q: What about the inhibition at 1 µM [10] of the same molecule?
A: The inhibition at 1 µM was 11%.

Q: `CCc1nc(C(N)=O)c(Nc2ccc(N3CCC(N4CCN(C)CC4)CC3)c(OC)c2)nc1NC1CCOCC1` [gilteritinib] was tested. Which inhibition at 1 µM [1] did it give?
A: The inhibition at 1 µM was 1.85%.

Q: What about the inhibition at 1 µM [2] of the same molecule?
A: The inhibition at 1 µM was 3%.

Q: What about the inhibition at 1 µM [3] of the same molecule?
A: The inhibition at 1 µM was 99%.

Q: What about the inhibition at 1 µM [4] of the same molecule?
A: The inhibition at 1 µM was 95%.

Q: What about the inhibition at 1 µM [5] of the same molecule?
A: The inhibition at 1 µM was 1.74%.

Q: What about the inhibition at 1 µM [6] of the same molecule?
A: Its inhibition at 1 µM is -6%.

Q: What about the inhibition at 1 µM [7] of the same molecule?
A: The inhibition at 1 µM was 23%.

Q: What about the inhibition at 1 µM [8] of the same molecule?
A: Its inhibition at 1 µM is 24%.

Q: And the inhibition at 1 µM [9]?
A: The inhibition at 1 µM was 64%.

Q: And the inhibition at 1 µM [10]?
A: Its inhibition at 1 µM is 39%.

Q: With `CN1CCN(c2ccc(C(=O)Nc3n[nH]c4ccc(Cc5cc(F)cc(F)c5)cc34)c(NC3CCOCC3)c2)CC1` [entrectinib] as the molecule, how does the inhibition at 1 µM [1] read?
A: The inhibition at 1 µM was -0.529%.

Q: And the inhibition at 1 µM [2]?
A: The inhibition at 1 µM was 3.42%.

Q: And the inhibition at 1 µM [3]?
A: Its inhibition at 1 µM is 63%.

Q: What about the inhibition at 1 µM [4] of the same molecule?
A: The inhibition at 1 µM was 8%.

Q: And the inhibition at 1 µM [5]?
A: Its inhibition at 1 µM is -3%.

Q: What about the inhibition at 1 µM [6] of the same molecule?
A: The inhibition at 1 µM was -4%.

Q: And the inhibition at 1 µM [7]?
A: The inhibition at 1 µM was 18%.

Q: And the inhibition at 1 µM [8]?
A: The inhibition at 1 µM was 13%.

Q: And the inhibition at 1 µM [9, 11]?
A: Its inhibition at 1 µM is 48%.

Q: And the inhibition at 1 µM [10]?
A: The inhibition at 1 µM was 11%.

Q: Which inhibition at 1 µM [1] does the source give for `COc1cc2ncnc(Nc3ccc(F)c(Cl)c3)c2cc1NC(=O)/C=C/CN1CCCCC1` [dacomitinib] here?
A: Its inhibition at 1 µM is 2.66%.

Q: What about the inhibition at 1 µM [2] of the same molecule?
A: The inhibition at 1 µM was 3%.

Q: What about the inhibition at 1 µM [3] of the same molecule?
A: Its inhibition at 1 µM is 78%.

Q: And the inhibition at 1 µM [4]?
A: Its inhibition at 1 µM is -2.48%.

Q: And the inhibition at 1 µM [5]?
A: The inhibition at 1 µM was 0.0743%.

Q: What about the inhibition at 1 µM [6] of the same molecule?
A: The inhibition at 1 µM was -15%.

Q: And the inhibition at 1 µM [7]?
A: Its inhibition at 1 µM is 6.47%.

Q: And the inhibition at 1 µM [8]?
A: Its inhibition at 1 µM is 2.54%.

Q: And the inhibition at 1 µM [9, 11]?
A: The inhibition at 1 µM was 2%.

Q: What about the inhibition at 1 µM [10] of the same molecule?
A: Its inhibition at 1 µM is 38%.

Q: Which results are given for `Cn1cc(-c2cc3c(N4CCN(c5ncc([C@@](C)(N)c6ccc(F)cc6)cn5)CC4)ncnn3c2)cn1` [avapritinib]?
A: inhibition at 1 µM [1]: -1.84%; inhibition at 1 µM [2]: 5.61%; inhibition at 1 µM [3]: 36%; inhibition at 1 µM [4]: 2.83%; inhibition at 1 µM [5]: 0.654%; inhibition at 1 µM [6]: -1.72%; inhibition at 1 µM [7]: 11%; inhibition at 1 µM [8]: 0.895%; inhibition at 1 µM [9, 11]: 20%; inhibition at 1 µM [10]: 56%

Q: Which inhibition at 1 µM [1] does the source give for `CCn1c(=O)c(-c2cc(NC(=O)Nc3ccccc3)c(F)cc2Br)cc2cnc(NC)cc21` [ripretinib] here?
A: Its inhibition at 1 µM is 2.79%.

Q: And the inhibition at 1 µM [2]?
A: The inhibition at 1 µM was 4%.

Q: What about the inhibition at 1 µM [3] of the same molecule?
A: Its inhibition at 1 µM is 18%.

Q: And the inhibition at 1 µM [4]?
A: The inhibition at 1 µM was -4.3%.

Q: What about the inhibition at 1 µM [5] of the same molecule?
A: The inhibition at 1 µM was -0.186%.

Q: What about the inhibition at 1 µM [6] of the same molecule?
A: The inhibition at 1 µM was -19%.

Q: And the inhibition at 1 µM [7]?
A: The inhibition at 1 µM was 8%.

Q: What about the inhibition at 1 µM [8] of the same molecule?
A: Its inhibition at 1 µM is 1.19%.

Q: And the inhibition at 1 µM [9, 11]?
A: Its inhibition at 1 µM is 5%.

Q: What about the inhibition at 1 µM [10] of the same molecule?
A: The inhibition at 1 µM was 4.57%.
